{"source": "patent US20240018120A1", "about": "“MAGL INHIBITORS” (H. LUNDBECK A/S, priority 2020, published 2024)", "key": {"MAGL [1]": {"molecular_target": "T1, MAGL (Homo sapiens, UniProt Q99685)", "T1 sequence (Q99685 1-303)": "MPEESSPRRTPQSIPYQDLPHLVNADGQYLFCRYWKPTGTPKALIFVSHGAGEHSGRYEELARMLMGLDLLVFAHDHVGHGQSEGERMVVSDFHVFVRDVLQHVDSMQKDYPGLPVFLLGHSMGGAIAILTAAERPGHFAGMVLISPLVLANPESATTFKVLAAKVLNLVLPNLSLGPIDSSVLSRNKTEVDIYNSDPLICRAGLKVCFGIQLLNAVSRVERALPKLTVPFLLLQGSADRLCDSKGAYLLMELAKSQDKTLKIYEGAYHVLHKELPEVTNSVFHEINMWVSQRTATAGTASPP", "assay": "In vitro competitive substrate hydrolysis enzyme activity assay (pNPA), HEK293 cell lysates", "assay_type": "biochemical", "design": "expressed in transfected cells; host or cells: HEK293", "settings": "HEK293 lysate", "experimental": "HEK293 cell lysates expressing recombinant human MAGL enzyme and 4-nitrophenyl acetate (pNPA) substrate were diluted separately in 50 mM HEPES (pH 7.0) containing 200 mM KCl and 1 mM EDTA. Lysates (50 μL, ˜1.2 μg total protein) were preincubated with varying concentrations of inhibitors at 25° C. After 30 min, 2×pNPA substrate (50 μL, 2.5 mM) was added and the rate of substrate turnover was monitored by measuring the increase in absorbance at wavelength 405 nm for 20 minutes at 25° C. using a Biotek Neo2 plate reader. The mean velocity was converted to percent enzyme activity following background subtraction and normalization to DMSO controls. IC50 values were determined by fitting percent enzyme activities to a non-linear regression, 4-parameter, sigmoidal dose response function in Prism GraphPad."}, "MAGL [2]": {"molecular_target": "T1, MAGL", "assay": "In vitro competitive activity-based protein profiling, PC3 human cell membrane proteomes", "assay_type": "biochemical", "design": "endogenous in cells; host or cells: PC3 human cells (membrane proteome)", "settings": "human PC3 membrane proteome", "experimental": "PC3 human cell membrane proteomes (50 μL, 2.0 mg/mL total protein concentration) were preincubated with varying concentrations of inhibitors at 37° C. After 30 min, the ABPP probe JW912-Bodipy (1.0 μL, 50 μM in DMSO) was added and the mixture was incubated for 30 min at room temperature. Reactions were quenched with SDS loading buffer (15 μL-4×) and run on SDS-PAGE. Following gel imaging, serine hydrolase activity was determined by measuring fluorescent intensity of gel bands corresponding to MAGL using ImageJ 1.43u software. Intensities were converted to percent enzyme activity by normalizing to DMSO controls. IC50 values were determined by fitting percent enzyme activities to a non-linear regression, 4-parameter, sigmoidal dose response function in Prism GraphPad."}}}
{"smiles": "CN(C(=O)C1CC12CCN(C(=O)OC(C(F)(F)F)C(F)(F)F)CC2)c1ccccn1", "note": "(single isomer, unassigned) [Example 46, 1,1,1,3,3,3-hexafluoropropan-2-yl (R or S)-1-(methyl(pyridin-2-yl)carbamoyl)-6-azaspiro[2.5]octane-6-carboxylate]", "values": [{"measurement": "IC50", "setting": "MAGL [1]", "value": 0.133, "unit": "µM"}]}
{"smiles": "O=C(Nc1ccccn1)C1CC12CCN(C(=O)OC(C(F)(F)F)C(F)(F)F)CC2", "note": "(single isomer, unassigned) [Example 49, 1,1,1,3,3,3-hexafluoropropan-2-yl (R or S)-1-(pyridin-2-ylcarbamoyl)-6-azaspiro[2.5]octane-6-carboxylate]", "values": [{"measurement": "IC50", "setting": "MAGL [1]", "value": 0.003, "unit": "µM"}]}
{"smiles": "O=C(OC(C(F)(F)F)C(F)(F)F)N1CCC2(CC1)CC2C(=O)N1CCn2cc(C(F)(F)F)nc2C1", "note": "(single isomer, unassigned) [Example 52, 1,1,1,3,3,3-hexafluoropropan-2-yl (R or S)-1-(2-(trifluoromethyl)-5,6,7,8-tetrahydroimidazo[1,2-a]pyrazine-7-carbonyl)-6-azaspiro[2.5]octane-6-carboxylate]", "values": [{"measurement": "IC50", "setting": "MAGL [1]", "value": 0.155, "unit": "µM"}]}
{"smiles": "O=C(Nc1cnccn1)C1CC12CCN(C(=O)OC(C(F)(F)F)C(F)(F)F)CC2", "note": "(single isomer, unassigned) [Example 55, 1,1,1,3,3,3-hexafluoropropan-2-yl (R or S)-1-(pyrazin-2-ylcarbamoyl)-6-azaspiro[2.5]octane-6-carboxylate]", "values": [{"measurement": "IC50", "setting": "MAGL [1]", "value": 0.028, "unit": "µM"}]}
{"smiles": "O=C(OC(C(F)(F)F)C(F)(F)F)N1CCC2(CC1)CC2C(=O)N1CCc2ncncc2C1", "note": "(single isomer, unassigned) [Example 61, 1,1,1,3,3,3-hexafluoropropan-2-yl (R or S)-1-(5,6,7,8-tetrahydropyrido[4,3-d]pyrimidine-6-carbonyl)-6-azaspiro[2.5]octane-6-carboxylate]", "values": [{"measurement": "IC50", "setting": "MAGL [1]", "value": 0.684, "unit": "µM"}]}
{"smiles": "O=C(OC(C(F)(F)F)C(F)(F)F)N1CCC2(CC1)CC2C(=O)N1CCc2nc(C3CC3)ncc2C1", "note": "(single isomer, unassigned) [Example 64, 1,1,1,3,3,3-hexafluoropropan-2-yl (R or S)-1-(2-cyclopropyl-5,6,7,8-tetrahydropyrido[4,3-d]pyrimidine-6-carbonyl)-6-azaspiro[2.5]octane-6-carboxylate]", "values": [{"measurement": "IC50", "setting": "MAGL [1]", "value": 0.103, "unit": "µM"}]}
{"smiles": "O=C(Nc1cncc(Cl)c1)C1CC12CCN(C(=O)OC(C(F)(F)F)C(F)(F)F)CC2", "note": "(single isomer, unassigned) [Example 67, 1,1,1,3,3,3-hexafluoropropan-2-yl (R or S)-1-((5-chloropyridin-3-yl)carbamoyl)-6-azaspiro[2.5]octane-6-carboxylate]", "values": [{"measurement": "IC50", "setting": "MAGL [1]", "value": 0.0485, "unit": "µM"}]}
{"smiles": "Cc1ncccc1NC(=O)C1CC12CCN(C(=O)OC(C(F)(F)F)C(F)(F)F)CC2", "note": "(single isomer, unassigned) [Example 69, 1,1,1,3,3,3-hexafluoropropan-2-yl (R or S)-1-((2-methylpyridin-3-yl)carbamoyl)-6-azaspiro[2.5]octane-6-carboxylate]", "values": [{"measurement": "IC50", "setting": "MAGL [1]", "value": 0.0136, "unit": "µM"}]}
{"smiles": "Cc1ncccc1NC(=O)C1CC12CCN(C(=O)OC(C(F)(F)F)C(F)(F)F)CC2", "note": "(single isomer, unassigned) [Example 70, 1,1,1,3,3,3-hexafluoropropan-2-yl (R or S)-1-((2-methylpyridin-3-yl)carbamoyl)-6-azaspiro[2.5]octane-6-carboxylate]", "values": [{"measurement": "IC50", "setting": "MAGL [1]", "value": 0.985, "unit": "µM"}]}
{"smiles": "O=C(Nc1cccc(C(F)(F)F)n1)C1CC12CCN(C(=O)OC(C(F)(F)F)C(F)(F)F)CC2", "note": "(single isomer, unassigned) [Example 73, 1,1,1,3,3,3-hexafluoropropan-2-yl (R or S)-1-((6-(trifluoromethyl)pyridin-2-yl)carbamoyl)-6-azaspiro[2.5]octane-6-carboxylate]", "values": [{"measurement": "IC50", "setting": "MAGL [1]", "value": 0.0003, "unit": "µM"}]}
{"smiles": "O=C(Nc1ccc(C(F)(F)F)nc1)C1CC12CCN(C(=O)OC(C(F)(F)F)C(F)(F)F)CC2", "note": "(single isomer, unassigned) [Example 79, 1,1,1,3,3,3-hexafluoropropan-2-yl (R or S)-1-((6-(trifluoromethyl)pyridin-3-yl)carbamoyl)-6-azaspiro[2.5]octane-6-carboxylate]", "values": [{"measurement": "IC50", "setting": "MAGL [1]", "value": 0.851, "unit": "µM"}]}
{"smiles": "Cc1ccc(NC(=O)C2CC23CCN(C(=O)OC(C(F)(F)F)C(F)(F)F)CC3)cn1", "note": "(single isomer, unassigned) [Example 82, 1,1,1,3,3,3-hexafluoropropan-2-yl (R or S)-1-((6-methylpyridin-3-yl)carbamoyl)-6-azaspiro[2.5]octane-6-carboxylate]", "values": [{"measurement": "IC50", "setting": "MAGL [1]", "value": 0.118, "unit": "µM"}]}
{"smiles": "CC(C)Oc1ccc(NC(=O)C2CC23CCN(C(=O)OC(C(F)(F)F)C(F)(F)F)CC3)cn1", "note": "(single isomer, unassigned) [Example 165, 1,1,1,3,3,3-hexafluoropropan-2-yl (R or S)-1-((6-isopropoxypyridin-3-yl)carbamoyl)-6-azaspiro[2.5]octane-6-carboxylate]", "values": [{"measurement": "IC50", "setting": "MAGL [2]", "value": 0.0014, "unit": "µM"}]}
{"smiles": "CC(C)Oc1ccc(NC(=O)C2CC23CCN(C(=O)OC(C(F)(F)F)C(F)(F)F)CC3)cn1", "note": "(single isomer, unassigned) [Example 166, 1,1,1,3,3,3-hexafluoropropan-2-yl (R or S)-1-((6-isopropoxypyridin-3-yl)carbamoyl)-6-azaspiro[2.5]octane-6-carboxylate]", "values": [{"measurement": "IC50", "setting": "MAGL [2]", "value": 0.13, "unit": "µM"}]}
{"smiles": "CC1(CNC(=O)C2CC23CCN(C(=O)OC(C(F)(F)F)C(F)(F)F)CC3)CCOCC1", "note": "(single isomer, unassigned) [Example 169, 1,1,1,3,3,3-hexafluoropropan-2-yl (R or S)-1-(((4-methyltetrahydro-2H-pyran-4-yl)methyl)carbamoyl)-6-azaspiro[2.5]octane-6-carboxylate]", "values": [{"measurement": "IC50", "setting": "MAGL [2]", "value": 0.21, "unit": "µM"}]}
{"smiles": "CC(=O)Nc1ccc(NC(=O)C2CC23CCN(C(=O)OC(C(F)(F)F)C(F)(F)F)CC3)cn1", "note": "(single isomer, unassigned) [Example 171, 1,1,1,3,3,3-hexafluoropropan-2-yl (R or S)-1-((6-acetamidopyridin-3-yl)carbamoyl)-6-azaspiro[2.5]octane-6-carboxylate]", "values": [{"measurement": "IC50", "setting": "MAGL [2]", "value": 0.0025, "unit": "µM"}]}
{"smiles": "CC(=O)Nc1ccc(NC(=O)C2CC23CCN(C(=O)OC(C(F)(F)F)C(F)(F)F)CC3)cn1", "note": "(single isomer, unassigned) [Example 172, 1,1,1,3,3,3-hexafluoropropan-2-yl (R or S)-1-((6-acetamidopyridin-3-yl)carbamoyl)-6-azaspiro[2.5]octane-6-carboxylate]", "values": [{"measurement": "IC50", "setting": "MAGL [2]", "value": 0.13, "unit": "µM"}]}
{"smiles": "NC(=O)c1ccc(NC(=O)[C@@H]2CC23CCN(C(=O)OC(C(F)(F)F)C(F)(F)F)CC3)cn1", "note": "(single isomer, unassigned) [Example 174]", "values": [{"measurement": "IC50", "setting": "MAGL [2]", "value": 0.22, "unit": "µM"}]}
{"smiles": "NC(=O)c1ccc(NC(=O)[C@H]2CC23CCN(C(=O)OC(C(F)(F)F)C(F)(F)F)CC3)cn1", "note": "(single isomer, unassigned) [Example 175]", "values": [{"measurement": "IC50", "setting": "MAGL [2]", "value": 0.0014, "unit": "µM"}]}
{"smiles": "O=C(Nc1ccon1)C1CC12CCN(C(=O)OC(C(F)(F)F)C(F)(F)F)CC2", "note": "(single isomer, unassigned) [Example 177, 1,1,1,3,3,3-hexafluoropropan-2-yl (R or S)-1-(isoxazol-3-ylcarbamoyl)-6-azaspiro[2.5]octane-6-carboxylate]", "values": [{"measurement": "IC50", "setting": "MAGL [2]", "value": 0.29, "unit": "µM"}]}
{"smiles": "O=C(Nc1ccon1)C1CC12CCN(C(=O)OC(C(F)(F)F)C(F)(F)F)CC2", "note": "(single isomer, unassigned) [Example 178, 1,1,1,3,3,3-hexafluoropropan-2-yl (R or S)-1-(isoxazol-3-ylcarbamoyl)-6-azaspiro[2.5]octane-6-carboxylate]", "values": [{"measurement": "IC50", "setting": "MAGL [2]", "value": 0.0027, "unit": "µM"}]}
{"smiles": "CS(=O)(=O)Nc1ccc(NC(=O)C2CC23CCN(C(=O)OC(C(F)(F)F)C(F)(F)F)CC3)cn1", "note": "(single isomer, unassigned) [Example 180, 1,1,1,3,3,3-hexafluoropropan-2-yl (R or S)-1-((6-(methylsulfonamido)pyridin-3-yl)carbamoyl)-6-azaspiro[2.5]octane-6-carboxylate]", "values": [{"measurement": "IC50", "setting": "MAGL [2]", "value": 0.28, "unit": "µM"}]}
{"smiles": "O=C(O)COc1ccc(NC(=O)C2CC23CCN(C(=O)OC(C(F)(F)F)C(F)(F)F)CC3)cn1", "note": "(single isomer, unassigned) [Example 184, (R or S)-2-((5-(6-(((1,1,1,3,3,3-hexafluoropropan-2-yl)oxy)carbonyl)-6-azaspiro[2.5]octane-1-carboxamido)pyridin-2-yl)oxy)acetic acid]", "values": [{"measurement": "IC50", "setting": "MAGL [2]", "value": 1.4, "unit": "µM"}]}
{"smiles": "O=C(NC1CCOCC1)[C@@H]1CC12CCN(C(=O)OC(C(F)(F)F)C(F)(F)F)CC2", "note": "[Example 9, 1,1,1,3,3,3-Hexafluoropropan-2-yl (R)-1-((tetrahydro-2H-pyran-4-yl)carbamoyl)-6-azaspiro[2.5]octane-6-carboxylate]", "values": [{"measurement": "IC50", "setting": "MAGL [2]", "value": 0.727, "unit": "µM"}]}
